Assay [1] concerns the target Estrogen receptor (Rattus norvegicus) (UniProt P06211+Q62986).
Description: In vitro relative binding affinity for rat uterine estrogen receptor compared to [3H]estradiol
The subject of assay [2] is MCF7. The experiment in a line: Effect on the growth of MCF-7 cells at a concentration of,10 e-7 M, percentage of control value being 87. In kind it is functional, Homo sapiens.
For assay [3], the system named is MCF7. The experiment in a line: Effect of compound with 10e-8 M estradiol on the growth of MCF-7 cells at a concentration 10 e-7 M, percentage of control value being 77. In kind it is functional, Homo sapiens.
For assay [4], the system named is MCF7. The experiment in a line: Effect of compound on the growth of MCF-7 cells at a concentration of,10 e-6 M, percentage of control value being 85. In kind it is functional, Homo sapiens.
The test system of assay [5] is MCF7. The experiment in a line: Effect of compound with 10e-8 M estradiol on the growth of MCF-7 cells at a concentration of,10 e-6 M, percentage of control value being 74. In kind it is functional, Homo sapiens.
Assay [6] has as its system MCF7. Put plainly: Effect on the growth of MCF-7 cells at a concentration of,10 e-7 M, percentage of control value being 20. In kind it is functional, Homo sapiens.
The subject of assay [7] is MCF7. The experiment in a line: Effect of compound with 10e-8 M estradiol on the growth of MCF-7 cells at a concentration 10 e-7 M, percentage of control value being 12. It counts as functional, Homo sapiens.
For assay [8], the system named is MCF7. The experiment in a line: Effect of compound on the growth of MCF-7 cells at a concentration of 10 e-6 M, percentage of control value being 35. In kind it is functional, Homo sapiens.
The test system of assay [9] is MCF7. The experiment in a line: Effect on the growth of MCF-7 cells at a concentration of 10 e-7 M, percentage of control value being 67. It counts as functional, Homo sapiens.
Assay [10] relates to MCF7. Put plainly: Effect of compound with 10e-8 M estradiol on the growth of MCF-7 cells at a concentration of 10 e-6 M, percentage of control value being 68. It counts as functional, Homo sapiens.
For assay [11], the system named is MCF7. Put plainly: Effect of compound with 10e-8 M estradiol on the growth of MCF-7 cells at a concentration 10 e-7 M, percentage of control value being 90. In kind it is functional, Homo sapiens.
The test system of assay [12] is MCF7. The experiment in a line: Effect of compound with 10e-8 M estradiol on the growth of MCF-7 cells at a concentration 10 e-7 M, percentage of control value being 13. It counts as functional, Homo sapiens.
Assay [13] concerns MCF7. The experiment in a line: Effect on the growth of MCF-7 cells at a concentration of,10 e-7 M, percentage of control value being 80. In kind it is functional, Homo sapiens.
Assay [14] deals with MCF7. Put plainly: Effect on the growth of MCF-7 cells at a concentration of,10 e-7 M, percentage of control value being 84. In kind it is functional, Homo sapiens.
The test system of assay [15] is MCF7. Put plainly: Effect of compound on the growth of MCF-7 cells at a concentration of,10 e-6 M, percentage of control value being 63. In kind it is functional, Homo sapiens.
The test system of assay [16] is MCF7. The experiment in a line: Effect of compound with 10e-8 M estradiol on the growth of MCF-7 cells at a concentration of,10 e-6 M, percentage of control value being 90. In kind it is functional, Homo sapiens.
Assay [17] relates to MCF7. Put plainly: Effect of compound with 10e-8 M estradiol on the growth of MCF-7 cells at a concentration 10 e-7 M, percentage of control value being 91. In kind it is functional, Homo sapiens.
Assay [18] deals with MCF7. The experiment in a line: Effect of compound on the growth of MCF-7 cells at a concentration of 10 e-6 M, percentage of control value being 23. In kind it is functional, Homo sapiens.
Assay [19] relates to MCF7. Put plainly: Effect of compound with 10e-8 M estradiol on the growth of MCF-7 cells at a concentration 10 e-7 M, percentage of control value being 85. It counts as functional, Homo sapiens.
Assay [20] concerns MCF7. The experiment in a line: Effect of compound on the growth of MCF-7 cells at a concentration of 10 e-6 M Experiment 2, percentage of control value being 13. In kind it is functional, Homo sapiens.
For assay [21], the system named is MCF7. The experiment in a line: Effect on the growth of MCF-7 cells at a concentration of 10 e-7 M, percentage of control value being 36. In kind it is functional, Homo sapiens.
Assay [22] relates to MCF7. The experiment in a line: Effect of compound with 10e-8 M estradiol on the growth of MCF-7 cells at a concentration of 10 e-6 M, percentage of control value being 32. In kind it is functional, Homo sapiens.
In assay [23] the test system is MCF7. The experiment in a line: Effect of compound on the growth of MCF-7 cells at a concentration of 10 e-7 M Experiment 2, percentage of control value being 15. In kind it is functional, Homo sapiens.

Usually IC50 stands for the concentration that gives 50% inhibition. `CC/C(=C(\c1ccccc1)c1ccc(OCCN(C)C)cc1)c1cccc(O)c1` came in with an IC50 in assay [1] of 30 nM.

In the case of `CC/C(=C(/c1ccc(OCCN(C)C)cc1)c1ccccc1O)c1ccccc1`, the DNA in assay [2] was 14.6 µg; in [3], 12.8 µg; in assay [4], 14.2 µg; in assay [5], 12.4 µg.

On to `CC/C(=C(/c1ccc(OCCN(C)C)cc1)c1ccc(O)cc1C)c1ccccc1`, for which the DNA in assay [6] was 1.6 µg; in [7] it was 1 µg.

Regarding `CC/C(=C(/c1ccc(OCCN(C)C)cc1)c1cccc(O)c1)c1ccccc1` [DROLOXIFENE], the DNA in [8] came to 5.9 µg; in [9], 11.2 µg; in [10] it was 11.3 µg; in [11], 15 µg.

`CC/C(=C(/c1ccc(OCCN(C)C)cc1)c1ccc(O)cc1O)c1ccccc1`: the values for the DNA in assay [12] and in assay [13] were 1.1 µg and 6.6 µg, respectively.

Consider `CC/C(=C(\c1ccccc1)c1ccc(OCCN(C)C)cc1)c1ccccc1` [TAMOXIFEN], for which the DNA in assay [14] turned out to be 14 µg; in [15], 10.6 µg; in assay [16], 15.1 µg; in assay [17], 15.2 µg.

For the compound `CCC(=C(c1ccc(O)cc1)c1ccc(OCCN(C)C)cc1)c1ccccc1`, the DNA amounted to 3.8 µg in [18]; 14.2 µg in assay [19]; 1.1 µg in [20]; 6 µg in [21]; 5.4 µg in assay [22]; 1.2 µg in assay [23].

Values taken from ChEMBL document CHEMBL1122822 (1985).
